Test results taken from article PMC10821124, “Dimeric 3,5-Bis(benzylidene)-4-piperidones: Tumor-Selective Cytotoxicity and Structure-Activity Relationships” (Medicines, 2024).

Key:
[1] = Cytotoxicity, average over the three human normal cells; assay type: cell-based; conditions: human, average of HGF, HPC, HPLF; read-out: AVE CC50, human normal cells
Experimental: (§1) Human promyelocytic leukemia [HL-60 (RCB3683)] (purchased from Riken Cell Bank, Tsukuba, Japan) was cultured at 37 °C in RPMI1640 medium (Fujifilm Wako Pure Chemical Co., Osaka, Japan) supplemented with 10% heat (56 °C, 30 min) inactivated FBS (Sigma-Aldrich Inc. St. Louis, MO, USA), 100 U/mL penicillin G, and 100 µg/mL streptomycin sulfate in a humidified 5% CO2 incubator (MCO-170 AICUVD-P, Panasonic Healthcare Co., Ltd., Gunma, Japan). Human oral squamous cell carcinoma (OSCC) cell lines derived from tongue [HSC-2 (RCB1945), HSC-3 (RCB1975), HSC-4 (RCB1902)] (Riken Cell Bank), and human normal oral cells (gingival fibroblasts, HGF; pulp cell, HPC; periodontal ligament fibroblast, HPLF), established from the first premolar extracted tooth in the lower jaw and periodontal tissues of a child, according to the guidelines of Meikai University Ethic Committee (No. A0808), were cultured in DMEM medium (Fujifilm Wako Pure Chemical Co.) supplemented with 10% FBS and antibiotics. The compounds in Series 2–4 were evaluated against HL-60, HSC-2, HSC-3, HSC-4, HGF, HPC, and HPLF cells based on a literature procedure, as described previously. In brief, near confluent cells were incubated in triplicate for 48 h at 37 °C with different concentrations ([…], 6.3, 12.5, 25, 50, 100 µM) of the compounds; then, viable cell numbers were measured using the MTT method. From the dose–response curve, a 50% cytotoxic concentration (CC50) was determined. All samples were dissolved in dimethylsulfoxide (DMSO). The toxicity of DMSO alone was calculated and subtracted. The CC50 values were determined from dose–response curves.

[2] = test system: human oral squamous cell carcinoma HSC-3 cells; test: Cytotoxicity, MTT method, HSC-3 cells; assay type: cell-based; conditions: for CC50: Homo sapiens, HSC-3, 48 h, MTT, mean ± SD, read-out: CC50 HSC-3; for SI (selectivity index) HSC-3: average CC50 non-malignant cells / CC50 HSC-3
Experimental: as §1

[3] = test system: human oral squamous cell carcinoma HSC-2 cells; test: Cytotoxicity, MTT method, HSC-2 cells; assay type: cell-based; conditions: for CC50: Homo sapiens, HSC-2, 48 h, MTT, mean ± SD, read-out: CC50 HSC-2; for SI (selectivity index) HSC-2: average CC50 non-malignant cells / CC50 HSC-2
Experimental: as §1

[4] = Cytotoxicity, MTT method, HGF non-malignant cells; assay type: cell-based, human; conditions: human, gingival fibroblasts (HGF), non-malignant, mean ± SD
Experimental: as §1

[5] = Cytotoxicity, MTT method, HPC non-malignant cells; assay type: cell-based, human; conditions: human, pulp cells (HPC), non-malignant, mean ± SD
Experimental: as §1

[6] = test system: human tumour cell lines HL-60, HSC-2, HSC-3, HSC-4; test: Cytotoxicity, average over the four human tumour cell lines; assay type: cell-based; conditions: for CC50: Homo sapiens, average of HL-60, HSC-2, HSC-3, HSC-4, read-out: AVE. CC50, human tumour cell lines; for AVE SI: average of the four SI values; for PSE (potency-selectivity expression): product of reciprocal of average CC50 (neoplastic cells) and average SI times 100; for CC50 values in all four bioassays (range in words): HL-60, HSC-2, HSC-3, HSC-4
Experimental: as §1

[7] = Cytotoxicity, MTT method, HPLF non-malignant cells; assay type: cell-based, human; conditions: human, periodontal ligament fibroblasts (HPLF), non-malignant, mean ± SD
Experimental: as §1

[8] = test system: human promyelocytic leukemia HL-60 cells; test: Cytotoxicity, MTT method, HL-60 cells; assay type: cell-based; conditions: for CC50: Homo sapiens, HL-60, 48 h, MTT, mean ± SD, read-out: CC50 HL-60; for SI (selectivity index) HL-60: average CC50 non-malignant cells / CC50 HL-60
Experimental: as §1

[9] = test system: human oral squamous cell carcinoma HSC-4 cells; test: Cytotoxicity, MTT method, HSC-4 cells; assay type: cell-based; conditions: for CC50: Homo sapiens, HSC-4, 48 h, MTT, mean ± SD, read-out: CC50 HSC-4; for SI (selectivity index) HSC-4: average CC50 non-malignant cells / CC50 HSC-4
Experimental: as §1

In the case of `O=C1/C(=C/c2ccccc2)CN(C(=O)C(=O)N2C/C(=C\c3ccccc3)C(=O)/C(=C/c3ccccc3)C2)C/C1=C\c1ccccc1` [Compound 2a], the CC50 at 48 h [1] is reported as 3260 nM, the CC50 [2] is reported as 150 ± 22 nM and the “SI (selectivity index) HSC-3” value [2] is reported as 21.7. The CC50 [3] was 85 ± 13 nM, the “SI (selectivity index) HSC-2” value [3] was 38.4 and the CC50 at 48 h [4] was 3800 ± 520 nM. For the same compound, the CC50 at 48 h [5] was 680 ± 73 nM, the CC50 [6] was 140 nM and the “AVE SI” value [6] was 26.5. The “PSE (potency-selectivity expression)” value [6] was > 100, the CC50 at 48 h [7] was 5300 ± 500 nM and the CC50 [8] was 110 ± 9 nM. For the same compound, the “SI (selectivity index) HL-60” value [8] was 29.6, the CC50 [9] was 200 ± 11 nM and the “SI (selectivity index) HSC-4” value [9] was 16.3.

In the case of `O=C1/C(=C/c2ccc(F)cc2)CN(C(=O)C(=O)N2C/C(=C\c3ccc(F)cc3)C(=O)/C(=C/c3ccc(F)cc3)C2)C/C1=C\c1ccc(F)cc1` [Compound 2b], the CC50 at 48 h [1] is reported as 1500 nM, the CC50 [2] is reported as 66 ± 8 nM and the “SI (selectivity index) HSC-3” value [2] is reported as 22.7. The CC50 [3] was 37 ± 9 nM, the “SI (selectivity index) HSC-2” value [3] was 40.5 and the CC50 at 48 h [4] was 1200 ± 100 nM. The CC50 at 48 h [5] was 1400 ± 110 nM, the “CC50 values in all four bioassays (range in words)” value [6] was “double-digit nanomolar range” and the CC50 [6] was 40 nM. For the same compound, the “AVE SI” value [6] was 37.3, the CC50 at 48 h [7] was 1900 ± 360 nM and the CC50 [8] was 37 ± 17 nM. The “SI (selectivity index) HL-60” value [8] was 40.5, the CC50 [9] was 33 ± 9 nM and the “SI (selectivity index) HSC-4” value [9] was 45.5.

In the case of `O=C1/C(=C/c2ccc(Cl)c(Cl)c2)CN(C(=O)C(=O)N2C/C(=C\c3ccc(Cl)c(Cl)c3)C(=O)/C(=C/c3ccc(Cl)c(Cl)c3)C2)C/C1=C\c1ccc(Cl)c(Cl)c1` [Compound 2d], the CC50 at 48 h [1] is reported as 34300 nM, the CC50 [2] is reported as 8400 ± 870 nM and the “SI (selectivity index) HSC-3” value [2] is reported as 4.08. The CC50 [3] was 5900 ± 120 nM, the “SI (selectivity index) HSC-2” value [3] was 5.81 and the CC50 at 48 h [4] was 36000 ± 3100 nM. For the same compound, the CC50 at 48 h [5] was 23000 ± 3100 nM, the CC50 [6] was 7280 nM and the “AVE SI” value [6] was 4.83. The CC50 at 48 h [7] was 44000 ± 3200 nM, the CC50 [8] was 8400 ± 17 nM and the “SI (selectivity index) HL-60” value [8] was 4.08. For the same compound, the CC50 [9] was 6400 ± 150 nM and the “SI (selectivity index) HSC-4” value [9] was 5.36.

For `Cc1ccc(/C=C2\CN(C(=O)C(=O)N3C/C(=C\c4ccc(C)cc4)C(=O)/C(=C/c4ccc(C)cc4)C3)C/C(=C\c3ccc(C)cc3)C2=O)cc1` [Compound 2e], the CC50 at 48 h [1] was 45000 nM, the CC50 [2] was 4300 ± 1100 nM and the “SI (selectivity index) HSC-3” value [2] was 10.5. The CC50 [3] was 1800 ± 250 nM, the “SI (selectivity index) HSC-2” value [3] was 25.0 and the CC50 at 48 h [4] was 45000 ± 4600 nM. For the same compound, the CC50 at 48 h [5] was 23000 ± 1200 nM, the CC50 [6] was 2780 nM and the “AVE SI” value [6] was 18.0. For the same compound, the CC50 at 48 h [7] was 67000 ± 4500 nM, the CC50 [8] was 2700 ± 780 nM and the “SI (selectivity index) HL-60” value [8] was 16.7. The CC50 [9] was 2300 ± 250 nM and the “SI (selectivity index) HSC-4” value [9] was 19.6.

In the case of `COc1ccc(/C=C2\CN(C(=O)C(=O)N3C/C(=C\c4ccc(OC)c(OC)c4)C(=O)/C(=C/c4ccc(OC)c(OC)c4)C3)C/C(=C\c3ccc(OC)c(OC)c3)C2=O)cc1OC` [Compound 2f], the CC50 at 48 h [1] is reported as 12500 nM, the CC50 [2] is reported as 230 ± 97 nM and the “SI (selectivity index) HSC-3” value [2] is reported as 54.4. For the same compound, the CC50 [3] was 420 ± 25 nM, the “SI (selectivity index) HSC-2” value [3] was 29.8 and the CC50 at 48 h [4] was 24000 ± 1100 nM. The CC50 at 48 h [5] was 2400 ± 700 nM, the CC50 [6] was 250 nM and the “AVE SI” value [6] was 57.0. The CC50 at 48 h [7] was 11000 ± 980 nM, the CC50 [8] was 190 ± 26 nM and the “SI (selectivity index) HL-60” value [8] was 65.8. For the same compound, the CC50 [9] was 160 ± 24 nM and the “SI (selectivity index) HSC-4” value [9] was 78.1.

With `COc1cc(/C=C2\CN(C(=O)C(=O)N3C/C(=C\c4cc(OC)c(OC)c(OC)c4)C(=O)/C(=C/c4cc(OC)c(OC)c(OC)c4)C3)C/C(=C\c3cc(OC)c(OC)c(OC)c3)C2=O)cc(OC)c1OC` [Compound 2g] the CC50 at 48 h [1] was 570 nM, the CC50 [2] was 35 ± 6 nM and the “SI (selectivity index) HSC-3” value [2] was 16.3. For the same compound, the CC50 [3] was 63 ± 9 nM, the “SI (selectivity index) HSC-2” value [3] was 9.05 and the CC50 at 48 h [4] was 470 ± 140 nM. For the same compound, the CC50 at 48 h [5] was 280 ± 70 nM, the “CC50 values in all four bioassays (range in words)” value [6] was “double-digit nanomolar range” and the CC50 [6] was 60 nM. The “AVE SI” value [6] was 11.8, the “PSE (potency-selectivity expression)” value [6] was > 100 and the CC50 at 48 h [7] was 950 ± 12 nM. The CC50 [8] was 37 ± 2 nM, the “SI (selectivity index) HL-60” value [8] was 15.4 and the CC50 [9] was 88 ± 29 nM. For the same compound, the “SI (selectivity index) HSC-4” value [9] was 6.48.
